Values of other authors in US20220409549A1, “ORAL PRODUCT TABLET AND METHOD OF MANUFACTURE” (NICOVENTURES TRADING LIMITED, priority 2021, published 2022).
Like-named read-outs stand apart in the source and are kept apart here.

Assays:
[1] = for logP: organic acids of Table 1, octanol and water
[2] = for solubility: fats, alcohols, water
[3] = converts via isomerization into trans-bixin

With tocopherol succinate as the compound, how does the logP [1] read?
The logP was 10.2.

With `CC(/C=C/C=C(C)/C=C/C(=O)O)=C\C=C\C=C(C)\C=C\C=C(C)\C=C\C(=O)O` (stereo in doubt) [norbixin, (2E,4E,6E,8E,10E,12E,14E,16E,18E)-4,8,13,17-tetramethylicosa-2,4,6,8,10,12,14,16,18-nonaenedioic acid] as the compound, how does the solubility [2] read?
The solubility was “water soluble”.

What does the source list for `CN1CCCC1c1cccnc1` (centres unmarked) [nicotine, reference compound]?
partitioning into octanol ([1]; acidic pH values, about 6.5 to about 4, protonated form): lower partitioning into octanol; partitioning into octanol ([1]; alkaline pH values, about 7.5 to about 9, free base form): high partitioning into octanol

With `CC(C)[C@@H]1CC[C@@H](C)C[C@H]1OC(=O)CCC(=O)O` [monomenthyl succinate] as the compound, how does the logP [1] read?
Its logP is 3.

For isopropyl benzoic acid, which logP [1] is on record?
Its logP is 3.5.

With `COC(=O)/C=C/C(C)=C\C=C\C(C)=C\C=C\C=C(C)\C=C\C=C(C)\C=C\C(=O)O` [bixin] as the compound, how does the solubility [2] read?
Its solubility is “soluble in fats and alcohols but insoluble in water”.

And the “chemical stability when isolated” value [3]?
The value was “chemically unstable”.

For ethyl benzoic acid, which logP [1] is on record?
The logP was 2.9.

Which results are given for `C=C(C)[C@@H]1CCC(C)=C[C@H]1c1c(O)cc(CCCCC)cc1O` [CBD, cannabidiol, reference compound]?
solubility in an aqueous environment (e.g., saliva) [2]: insoluble; logP value ([1]; CBD): about 6.5
